Assay results reported in patent US11926619B2, “Certain pladienolide compounds and methods of use” (EISAI R&D MANAGEMENT CO., LTD., priority 2018, dated 2024).
Read-outs that look alike come from different tables or passages of the source.

Assays:
Format in all cases: cell-based
[1] = test system: Panc 05.04 cells (pancreatic cancer cells; Q699H and K700E mutations in SF3B1); assay: Cell viability assay (CellTiter-Glo, 72 hr), Panc 05.04 cells; settings: for Emax: maximum achievable response in tested dose range, negative value = cellular lethality, read-out: Panc 05.04 (mt SF3B1 cells) Emax (%)
Description: (§1) Cells (WiDr and Panc05.04 obtained from ATCC) were seeded in 96-well plates, with 2000 cells/100 μL/well, and incubated overnight. Spent media was removed, and fresh media containing 9 different concentrations of compound (100 μL/well) were added, with DMSO concentration from compound stock solution adjusted to be 0.1%. Each compound treatment was done in duplicate or triplicate at each concentration.
(§2) Another plate with cells seeded was dedicated as a time zero (Tz) plate, to which was added 0.1% DMSO in media (100 μL/well) followed by CellTiter-Glo® reagent (Promega Corporation, Madison, Wisconsin) (50 μL/well) for ATP measurement as a surrogate of cell viability. Average value from measurement of multiple wells of this plate is used as Tz. Compound-treated plates were incubated for 72 hr at 37° C. Then, CellTiter-Glo® reagent (50 μL/well) was added and ATP was measured. Average value from measurement of the duplicate or triplicate compound-treated wells is used as Ti, and seeded plates with medium having 0.1% DMSO without compound is used as control growth (C).
(§3) Percentage growth inhibition/Percentage viability was calculated as:
(§4) [(Ti−Tz)/(C−Tz)]×100 for concentrations for which Ti>/=Tz
(§5) [(Ti−Tz)/Tz]×100 for concentrations for which Ti<Tz.
(§6) *time zero (Tz), control growth (C), and test growth in the presence of compound (Ti) Percentage growth inhibition/Percentage viability are plotted versus compound concentration to determine Emax.
(§7) Emax refers to the maximum achievable response to a compound in a tested dose range, with a negative value indicating cellular lethality. A larger negative Emax value indicates greater cellular lethality for a particular compound.

[2] = test system: WiDr cells (colon cancer cells; wildtype SF3B1); assay: Cell viability assay (CellTiter-Glo, 72 hr), WiDr cells; settings: Homo sapiens
Description: as §1, §2, §3, §4, §5, §6
Emax refers to the maximum achievable response to a compound in a tested dose range, with a negative value indicating cellular lethality. A larger negative Emax value indicates greater cellular lethality for a particular compound. […]

[3] = test system: WiDr-R cells (colon cancer cells; chemically-induced SF3B1 R1074H mutant); assay: Cell viability assay (CellTiter-Glo, 72 hr), resistant WiDr-R cells (counter-screen)
Description: as §1, §2, §3, §4, §5, §6, §7
The counter-screening of compounds in this viability assay with a “resistant” WiDr-R cell line may indicate whether these compounds have off-target effect(s).

[4] = Panc 05.04 cells (mutant SF3B1)
[5] = Panc 05.04 cells (mutant SF3B1), read-out: Panc 05.04 (mt SF3B1 cells), GI50
[6] = WiDr cells (wildtype SF3B1), read-out: WiDr GI50
[7] = WiDr-R cells (SF3B1 R1074H mutation, resistant), read-out: WiDr-R GI50
[8] = WiDr cells, 72 hr, CellTiter-Glo, read-out: WiDr GI50
[9] = Panc 05.04, Panc05.04 cells, 72 hr, CellTiter-Glo, read-out: Panc05.04 GI50

Structure (SMILES) | Emax [1, 4] [%] | GI50 [1, 5] [nM] | GI50 [2, 6] [nM] | GI50 [3, 7] [nM] | other results
CC(=O)O[C@H]1/C=C/[C@H](C)[C@@H](/C(C)=C/C=C/C(C)CCc2ccccc2)OC(=O)C[C@H](O)CC[C@@]1(C)O (stereo partly shown) | -26.4 | 827 | – | – | –
CC(=O)O[C@H]1/C=C/[C@H](C)[C@@H](/C(C)=C/C=C/C(C)(O)c2ccccc2)OC(=O)C[C@H](O)CC[C@@]1(C)O (stereo partly shown) | 13.3 | 1500 | 657 | > 10000 | –
CC(=O)O[C@H]1/C=C/[C@H](C)[C@@H](/C(C)=C/C=C/C(C)Cc2ccccn2)OC(=O)C[C@H](O)CC[C@@]1(C)O (stereo partly shown) | 20.3 | 1670 | 911 | > 10000 | –
COc1cccc(C(C)/C=C/C=C(\C)[C@H]2OC(=O)C[C@H](O)CC[C@@](C)(O)[C@@H](OC(C)=O)/C=C/[C@@H]2C)n1 (stereo partly shown) | -12.7 | 554 | 282 | > 10000 | –
C/C(=C\C=C\[C@@H](C)COC(=O)N1CC[C@@H](O)C1)[C@H]1OC(=O)CCCCC[C@@H](OC(=O)N(C)C)/C=C/[C@@H]1C | -83.7 | 139 | – | – | GI50 ([2]; WiDr, read-out: WiDr GI50 (nM)): 154 nM
C/C(=C\C=C\[C@@H](C)COC(=O)N1CCCC1)[C@H]1OC(=O)CCCCC[C@@H](OC(=O)N2CCN(C3CCCCCC3)CC2)/C=C/[C@@H]1C | -93.3 | 170 | 74.6 | 929 | –
CCC(C)N(C)C(=O)OC[C@H](C)/C=C/C=C(\C)[C@H]1OC(=O)C[C@H](O)CC[C@@](C)(O)[C@@H](OC(C)=O)/C=C/[C@@H]1C (stereo partly shown) | – | 587 | 308 | > 10000 | –
C/C(=C\C=C\[C@@H](C)CO)[C@H]1OC(=O)C[C@H](O)CC[C@@](C)(O)[C@@H](OC(=O)N2CCN(C)CC2)/C=C/[C@@H]1C | 35.1 | 1390 | 1150 | > 10000 | –
CCCN(C)C(=O)OC[C@H](C)/C=C/C=C(\C)[C@H]1OC(=O)C[C@H](O)CC[C@@](C)(O)[C@@H](OC(=O)N2CCN(C3CCCCCC3)CC2)/C=C/[C@@H]1C | -92.4 | 279 | – | – | GI50 ([2]; WiDr, read-out: WiDr GI50 (nM)): 43.4 nM; GI50 ([3]; read-out: WiDr-R GI50 (nM)): > 1000 nM
C/C(=C\C=C\C1(COC(=O)N2CCCC2)CC1)[C@H]1OC(=O)C[C@H](O)CC[C@@](C)(O)[C@@H](OC(=O)N2CCN(C3CCCCCC3)CC2)/C=C/[C@@H]1C | -24.7 | 302 | 138 | > 1000 | –
C/C(=C\C=C\C(C)c1ccnc(N(C)C)n1)[C@H]1OC(=O)CCCCC[C@@H](OC(=O)N2CCN(C3CCCCCC3)CC2)/C=C/[C@@H]1C (stereo partly shown) | 52 | > 10000 | 4280 | > 10000 | –
C/C(=C\C=C\[C@@H](C)c1ccccn1)[C@H]1OC(=O)C[C@H](O)CC[C@@](C)(O)[C@@H](OC(=O)N(C)C2CCN(C)CC2)/C=C/[C@@H]1C | -60.2 | 25.1 | 16.2 | > 1000 | –
C/C(=C\C=C\[C@@H](C)c1ccccn1)[C@H]1OC(=O)C[C@H](O)CC[C@@](C)(O)[C@@H](OC(=O)N2CCN(C3CCCCCC3)C(C)C2)/C=C/[C@@H]1C (stereo partly shown) | -60.4 | 126 | 133 | > 1000 | –
CC(=O)O[C@H]1/C=C/[C@H](C)[C@@H](/C(C)=C/C=C/Cc2cccnc2)OC(=O)C[C@H](O)CC[C@@]1(C)O | 84.5 | > 6400 | 538 | > 10000 | –
CC(=O)O[C@H]1/C=C/[C@H](C)[C@@H](/C(C)=C/C=C/[C@@H](C)COC(=O)N2CCSC2)OC(=O)C[C@H](O)CC[C@@]1(C)O | – | 68 | 62.9 | > 1000 | –
C/C(=C\C=C\[C@@H](C)CCC(=O)N1CCCC1)[C@H]1OC(=O)CC(O)CCC(C)(O)[C@@H](OC(=O)N2CCN(C)CC2)/C=C/[C@@H]1C (stereo in doubt) [Compound 1, [(2S,3S,4E,6S,7S,10S)-7,10-dihydroxy-3,7-dimethyl-2-[(2E,4E,6S)-6-methyl-9-oxo-9-pyrrolidin-1-ylnona-2,4-dien-2-yl]-12-oxo-1-oxacyclododec-4-en-6-yl] 4-methylpiperazine-1-carboxylate] | – | – | – | – | cellular lethality (Emax comparison) ([1]; Panc 05.04 cells, mutant SF3B1 cell line): greater cellular lethality than Compound 7
CCC(=O)[C@@H](C)[C@H]1O[C@@H]1C[C@@](C)(O)/C=C/C=C(\C)[C@H]1OC(=O)CC(=O)CC[C@@](C)(O)[C@@H](OC(C)=O)/C=C/[C@@H]1C | -81.7 | 97.7 | – | – | –
C/C(=C\C=C\[C@@H](C)COC(=O)N1CCC[C@H]1C(N)=O)[C@H]1OC(=O)C[C@H](O)CC[C@@](C)(O)[C@@H](OC(=O)N2CCN(C3CCCCCC3)CC2)/C=C/[C@@H]1C | -92.9 | 40.2 | 32.8 | > 1000 | –
CC(=O)O[C@H]1/C=C/[C@H](C)[C@@H](/C(C)=C/C=C/C(C)c2cccc([C@H](C)CO)n2)OC(=O)C[C@H](O)CC[C@@]1(C)O (stereo partly shown) | -28.2 | 408 | 343 | > 10000 | –
C/C(=C\C=C\[C@@H](C)COC(=O)N1CCC[C@H]1CF)[C@H]1OC(=O)C[C@H](O)CC[C@@](C)(O)[C@@H](OC(=O)N2CCN(C)CC2)/C=C/[C@@H]1C | -82.1 | 2.25 | 1.7 | > 1000 | –
C/C(=C\C=C\[C@@H](C)c1cccnc1)[C@H]1OC(=O)C[C@H](O)CC[C@@](C)(O)[C@@H](OC(=O)N2CCN(C3CCCCCC3)CC2)/C=C/[C@@H]1C (single isomer, unassigned) [Compound 159] | – | – | – | – | GI50 [2, 8]: 13.3 nM; GI50 [1, 9]: 15 nM
CCOc1cccc(CCC(C)/C=C/C=C(\C)[C@H]2OC(=O)C[C@H](O)CC[C@@](C)(O)[C@@H](OC(C)=O)/C=C/[C@@H]2C)c1 (stereo partly shown) | -32 | 508 | – | – | –
COCc1ccc(CCC(C)/C=C/C=C(\C)[C@H]2OC(=O)C[C@H](O)CC[C@@](C)(O)[C@@H](OC(C)=O)/C=C/[C@@H]2C)cc1 (stereo partly shown) | -67.3 | 321 | – | – | –
CC(=O)O[C@H]1/C=C/[C@H](C)[C@@H](/C(C)=C/C=C/C(C)(O)CCc2ccc(O)cc2)OC(=O)C[C@H](O)CC[C@@]1(C)O (stereo partly shown) | -70.5 | 249 | – | – | –
COCc1ccccc1CCC(C)/C=C/C=C(\C)[C@H]1OC(=O)C[C@H](O)CC[C@@](C)(O)[C@@H](OC(C)=O)/C=C/[C@@H]1C (stereo partly shown) | -39.5 | 427 | – | – | –
C/C(=C\C=C\C(C)c1cccnc1)[C@H]1OC(=O)C[C@H](O)CC[C@@](C)(O)[C@@H](OC(=O)N2CCC(N3CCC(F)CC3)CC2)/C=C/[C@@H]1C (stereo partly shown) | 12.5 | 862 | – | – | –
CC[Si](CC)(CC)O[C@@H]1CCN(c2nccc(C(C)/C=C/C=C(\C)[C@H]3OC(=O)CCCCC[C@@H](OC(=O)N4CCN(C5CCCCCC5)CC4)/C=C/[C@@H]3C)n2)C1 (stereo partly shown) | – | – | > 1000 | > 10000 | –
CC[C@H](O)[C@@H](C)[C@H]1O[C@@H]1C[C@@](C)(O)/C=C/C=C(\C)[C@H]1OC(=O)C[C@H](O)CC[C@@](C)(OC)[C@@H](OC(=O)N(C)CCN(C)C)/C=C/[C@@H]1C | -64.4 | 3.48 | – | – | –
C/C(=C\C=C\[C@H](C)c1cccnc1)[C@H]1OC(=O)C[C@H](O)CC[C@@](C)(O)[C@@H](OC(=O)N2CCN(C3CCCCCC3)CC2)/C=C/[C@@H]1C (single isomer, unassigned) [Compound 160] | – | – | – | – | GI50 [2, 8]: 29.5 nM; GI50 [1, 9]: 15.8 nM
